Experimental data published in publication PMC4836675, “Tetrabromobisphenol A Is an Efficient Stabilizer of the Transthyretin Tetramer” (PLoS ONE, 2016).
“Also recorded” adds a separate entry of the source. Where two headings read alike, the source gives them in different places.

Columns and labels:
[1] = design: method as in earlier work; settings: steady state after 14 days of daily administration; cited from earlier work
[2] = tested on: SH-SY5Y neuroblastoma cells; experiment: TTR-mediated cytotoxicity, resazurin cell-viability assay; settings: TTR 15 μM, compound 15 μM, 72 h
Experimental: The cytotoxic effect of TTR was monitored by a decrease in the conversion of resazurin to resorufin.
Cell viability was measured with a resazurin assay [46]. Data are reported as the mean cell viability ± the standard deviation (n = 3, ** p < 0.01; *** p < 0.001). […] The statistical significance was assessed using one-way ANOVA.
The human neuroblastoma cell line SH-SY5Y was obtained from the European Collection of Cell Cultures (Centre for Applied Microbiology and Research). SH-SY5Y cells were cultured according to a previous report [79] with minor modifications. The cells were grown in MEM and GlutaMax medium (Gibco) and supplemented with 10% (v/v) fetal bovine serum (Gibco), 100 units/mL penicillin, 100 μg/mL streptomycin (Gibco), and 1% non-essential amino acid solution (Gibco). Cultures were maintained in an incubator at 37°C with a humidified atmosphere of 5% CO2. […] All experiments were performed in triplicate.

WT-TTR = molecular target: T1, WT-TTR (Homo sapiens, UniProt P02766); experiment: Turbidity assay of TTR aggregation at low pH; type: biochemical; settings: WT-TTR 15 μM tetramer, compound 15 μM, pH 4.5, 72 h
T1 construct: made in house; host or cells: E. coli BL21
Experimental: (§1) Amyloid formation by TTR can be induced at low pH, which results in disruption of the tetramer and the subsequent formation of aggregates. This event can be monitored by a simple turbidity measurement.
(§2) Aggregation of WT-TTR and V30M-TTR was initiated by lowering the pH to 4.5 using a sodium-acetate/acetic acid buffer followed by incubation for 72 h. The percentage of aggregation relative to the control was monitored by measuring the turbidity at 400 nm.
(§3) In order to prevent microbial growth, all samples and controls were supplemented with 0.05% NaN3. Dissociation and subsequent aggregation of TTR was initiated by adding 50 mM sodium acetate at pH 4.5 and incubating at 37°C under agitation conditions. The formation of TTR aggregates was monitored by turbidity measurement at 400 nm in a TECAN Safire plate reader after incubating for 72 h. All experiments were performed five times.

plasma TTR = plasma TTR (Homo sapiens, UniProt P02766); experiment: Drug efficacy/selectivity in human plasma (urea denaturation, western blot of monomeric TTR)
Experimental: The ability of a drug to stabilize the tetrameric form of TTR by binding to the hydrophobic hormone binding pockets at the dimer interface of the tetramer is directly correlated to the drug’s binding affinity.
The dissociation of plasma TTR was initiated by the addition of urea at a final concentration of 4.0 M. The dissociation to monomeric TTR was monitored by western blot and quantified with the ImageJ 2.0 software.
Briefly, plasma was buffered by the addition of 20 μL phosphate buffer from a 1 M stock solution to reach a final concentration of 20 mM, pH 7.4. […] To initiate the denaturation of the TTR tetramer, urea was added to a final concentration of 4 M followed by 18 h of incubation at 25°C. In the absence of a stabilizing ligand, this treatment causes dissociation and monomerization of the TTR tetramer. […] The monomeric band on the membrane was visualized by western blot according to standard protocols using a rabbit anti-TTR antibody (anti-prealbumin, DAKO) followed by a horseradish peroxidase-labeled antibody (anti-rabbit HRP, GE Healthcare). Nonspecific binding of antibodies was prevented by the addition of 5% fat-free powdered milk and 0.3% Tween-20. Enhanced chemiluminescence (ECL-prime, GE Healthcare) was used to visualize the bound antibodies. The bands containing the TTR monomer were quantified through densitometric analysis using the ImageJ 1.48 program.

V30M-TTR = molecular target: T2, V30M-TTR (Homo sapiens, UniProt P02766, V50M); experiment: Turbidity assay of TTR aggregation at low pH; type: biochemical; settings: V30M-TTR 15 μM tetramer, compound 15 μM, pH 4.5, 72 h
T2 construct: made in house; host or cells: E. coli BL21
Experimental: as §1, §2, §3

[3] = cited from earlier work; for Serum concentration: after seven days, 12 hours after last dose
[4] = cited from earlier work
Sprague—Dawley rats = tested on: Sprague—Dawley rats; design: method as in PMID 25523853; settings: prolonged daily oral 100, 300, or 1000 mg·kg−1·day−1; cited from earlier work
[5] = tested on: Salmonella typhimurium, Escherichia coli, and yeast cells; settings: with and without metabolic activation; cited from earlier work
TTR = molecular target: T3, TTR (Homo sapiens, UniProt P02766); experiment: Isothermal titration calorimetry (ITC); type: binding
T3 construct: made in house; host or cells: E. coli BL21
Experimental: ITC experiments were performed using an Auto-iTC200 (MicroCal) at 25°C. […] For each experiment, 19 automated injections of 2 μL and a duration 0.8 s were performed with 300 s intervals between each injection and with a stirring speed of 1000 rpm. The titrations were done with high feedback and a filter period of 5 s and were repeated twice. Calorimetric data were plotted and fitted using the standard single-site binding model.

[6] = rats, single oral dose 300 mg/kg body weight

Compound: O=C(O)c1ccc2nc(-c3cc(Cl)cc(Cl)c3)oc2c1 [Tafamidis, tafamidis]
- Clinically beneficial plasma concentration [1]: 3.5 to 8.5 µM
- Cell survival in presence of cytotoxic TTR [2]: increased cell survival to essentially that of the untreated control cells
- Aggregation of TTR at low pH (turbidity at 400 nm) (WT-TTR): prevents the aggregation
- Saturation level of TTR (plasma TTR; from IC50 around 5 μM and tafamidis plasma concentration 3.5–8.5 μM, TTR 4 μM): 31–56%
- Aggregation of TTRVal30Met at low pH (turbidity at 400 nm) (V30M-TTR): prevents the aggregation

Compound: O=C(O)c1cc(-c2ccc(F)cc2F)ccc1O [Diflunisal, diflunisal]
- Cell survival in presence of cytotoxic TTR [2]: increased cell survival to essentially that of the untreated control cells
- Aggregation of TTR at low pH (turbidity at 400 nm) (WT-TTR): prevents the aggregation
- Aggregation of TTRVal30Met at low pH (turbidity at 400 nm) (V30M-TTR): prevents the aggregation
- Serum concentration ([3]; 250 mg twice per day): 145 µM
- Serum concentration ([3]; 500 mg twice per day): 420 µM
- Bioavailability ([3]; oral administration): good

Compound: CC(C)(c1cc(Br)c(O)c(Br)c1)c1cc(Br)c(O)c(Br)c1 [TBBPA, 2,2’,6,6’-tetrabromo-4,4’-isopropylidentediphenol]
- Oral bioavailability ([4]; animals, oral intake, compared to tafamidis and diflunisal): low bioavailability
- Half-lives ([4]; oral 200, 500 and 1000 mg/kg): 7.5 to 9.5 h
- Half-life [4, 6]: around 13 h
- Time of maximal serum concentration [4, 6]: 3 h
- Elimination half-life ([4]; single oral dose 250 mg/kg body weight, 14C-TBBPA, non-compartmental model): around 4.5 h
- Time of maximal plasma concentration post-dose ([4]; single oral dose 250 mg/kg body weight, 14C-TBBPA): 127 min
- Cell survival in presence of cytotoxic TTR [2]: increased cell survival to essentially that of the untreated control cells
- Aggregation of TTR at low pH (turbidity at 400 nm) (WT-TTR): efficiently prevents the aggregation
- IC50 (plasma TTR; IC50 plasma, human plasma, 2 h incubation, 4 M urea, three independent experiments): 3300 ± 500 nM
- Saturation of the high-affinity binding site of TTR (plasma TTR; at a TBBPA plasma concentration of 5 μM, based on the IC50 value): 48%
- Stabilization of TTR tetramer in human plasma (plasma TTR; human plasma, 4 M urea): effectively stabilizes TTR at a stoichiometric ratio in plasma; also recorded: pronounced stabilizing effect on TTR is observed even at concentrations as low as 4 μM
- Mortality and neuropathological ailments (Sprague—Dawley rats): did not result in increased mortality or the development of neuropathological ailments
- Aggregation of TTRVal30Met at low pH (turbidity at 400 nm) (V30M-TTR): efficiently prevents the aggregation
- Genotoxicity in Ames tests [5]: negative results
- Kd (TTR; 25°C, assuming independent binding sites (single-site model), read-out: Binding affinity to TTR (Kd)): 20 nM
- Kd (TTR; negative cooperativity, first site, read-out: Kd1): 6 nM
- Kd (TTR; read-out: Kd2, negative cooperativity, second site): 975 nM
